The term IC50 denotes the midpoint of a concentration-inhibition curve.

In the first experiment the test system is MDA-MB-231 cells. Briefly: Cell viability CCK-8 assay. Format: cell-based, human. Particulars: Homo sapiens, MDA-MB-231, 48 h, read-out: Antiproliferative IC50 ± SD. (Tetrazolium assays rely on reduction of a dye to a coloured formazan, in cell work by metabolically active cells.)
As for `CO[C@H]1C[C@@H]2CC[C@@H](C)[C@@](O)(O2)C(=O)C(=O)N2CCCC[C@H]2C(=O)O[C@H]([C@H](C)C[C@@H]2CC[C@@H](OCCO)[C@H](OC)C2)CC(=O)[C@H](C)/C=C(\C)[C@@H](O)[C@@H](OC)C(=O)[C@H](C)C[C@H](C)/C=C/C=C/C=C/1C` [Everolimus, reference compound], the half-inhibitory concentration (IC50) worked out at 2.29 ± 0.0763 µM.
Consider `CC(C)n1nc(-c2ccc3oc(N)nc3c2)c2c(N)ncnc21` [MLN-0128, reference compound], for which the half-inhibitory concentration (IC50) is 0.179 ± 0.238 µM.

The target of another experiment is mTOR (Homo sapiens, UniProt P42345). Briefly: mTOR kinase inhibition, Lance Ultra assay. The experiment is classed as biochemical. Conditions: mTOR IC50, text and Fig. 3A.
Molecule `Nc1ccccc1/N=c1\cc(-c2ccc3c(c2)OCO3)oc2ccccc12` [Compound 4a] displayed an IC50 of 1.5 µM.

The experiment is the same for the next values; noted with them: mTOR, IC50, mean ± SD of triplicate measurements.
Turning to `Nc1ccccc1/N=c1\cc(-c2ccc3c(c2)OCO3)oc2ccccc12` [Compound 4a], the concentration for half-maximal inhibition (IC50) was found to be 1.54 ± 0.0211 µM.
`NCC(=O)Nc1ccccc1/N=c1\cc(-c2ccc3c(c2)OCO3)oc2ccccc12` [Compound 5a, (E)-2-amino-N-(2-((2-(benzo[d][1,3]dioxol-5-yl)-4H-chromen-4-ylidene)amino)phenyl)acetamide]: the midpoint of inhibition, the IC50, lay at 0.719 ± 0.0074 µM.
Still for that read-out and setting: the value for `NCCC(=O)Nc1cccc(/N=c2\cc(-c3ccc4c(c3)OCO4)oc3ccccc23)c1` [Compound 5ab, (E)-3-amino-N-(3-((2-(benzo[d][1,3]dioxol-5-yl)-4H-chromen-4-ylidene)amino)phenyl)propanamide] was more than 10 µM; that for `NCCC(=O)Nc1ccc(/N=c2\cc(-c3ccc4c(c3)OCO4)oc3ccccc23)cc1` [Compound 5ac, (E)-3-amino-N-(4-((2-(benzo[d][1,3]dioxol-5-yl)-4H-chromen-4-ylidene)amino)phenyl)propanamide] was more than 10 µM.
With `C[C@H](N)C(=O)Nc1ccccc1/N=c1\cc(-c2ccc3c(c2)OCO3)oc2ccccc12` [Compound 5b, (S,E)-2-amino-N-(2-((2-(benzo[d][1,3]dioxol-5-yl)-4H-chromen-4-ylidene)amino)phenyl)propanamide], the IC50 worked out at 3.19 ± 0.194 µM.
Consider `N[C@@H](CO)C(=O)Nc1ccccc1/N=c1\cc(-c2ccc3c(c2)OCO3)oc2ccccc12` [Compound 5c, (S,E)-2-amino-N-(2-((2-(benzo[d][1,3]dioxol-5-yl)-4H-chromen-4-ylidene)amino)phenyl)-3-hydroxypropanamide], for which the IC50 was more than 10 µM.
Molecule `COCCC(=O)Nc1ccccc1/N=c1\cc(-c2ccc3c(c2)OCO3)oc2ccccc12` [Compound 5d, (E)-N-(2-((2-(benzo[d][1,3]dioxol-5-yl)-4H-chromen-4-ylidene)amino)phenyl)-3-methoxypropanamide] had a half-maximal inhibitory concentration (IC50) of more than 10 µM.
Same read-out and setting: the value for `NCCC(=O)Nc1ccccc1/N=c1\cc(-c2ccc3c(c2)OCO3)oc2ccccc12` [Compound 5e, (E)-3-amino-N-(2-((2-(benzo[d][1,3]dioxol-5-yl)-4H-chromen-4-ylidene)amino)phenyl)propanamide] was 0.317 ± 0.0191 µM.
The same measure, in the same setting: the value for `NCCCC(=O)Nc1ccccc1/N=c1\cc(-c2ccc3c(c2)OCO3)oc2ccccc12` [Compound 5f, (E)-4-amino-N-(2-((2-(benzo[d][1,3]dioxol-5-yl)-4H-chromen-4-ylidene)amino)phenyl)butanamide] was 8.19 ± 1.85 µM.
For the molecule `NCCCCC(=O)Nc1ccccc1/N=c1\cc(-c2ccc3c(c2)OCO3)oc2ccccc12` [Compound 5g, (E)-5-amino-N-(2-((2-(benzo[d][1,3]dioxol-5-yl)-4H-chromen-4-ylidene)amino)phenyl)pentanamide], the IC50 was more than 10 µM.
Molecule `O=C(Nc1ccccc1/N=c1\cc(-c2ccc3c(c2)OCO3)oc2ccccc12)N1CCOCC1` [Compound 5h, (E)-N-(2-((2-(benzo[d][1,3]dioxol-5-yl)-4H-chromen-4-ylidene)amino)phenyl)morpholine-4-carboxamide] displayed an IC50 of more than 10 µM.
The same measure, in the same setting: the value for `O=C(Nc1ccccc1/N=c1\cc(-c2ccc3c(c2)OCO3)oc2ccccc12)N1CCNCC1` [Compound 5i, (E)-N-(2-((2-(benzo[d][1,3]dioxol-5-yl)-4H-chromen-4-ylidene)amino)phenyl)piperazine-1-carboxamide] was 7.47 ± 0.139 µM.
Regarding `CC(C)(C)[C@H](N)C(=O)Nc1ccccc1/N=c1\cc(-c2ccc3c(c2)OCO3)oc2ccccc12` [Compound 5j, (S,E)-2-amino-N-(2-((2-(benzo[d][1,3]dioxol-5-yl)-4H-chromen-4-ylidene)amino)phenyl)-3,3-dimethylbutanamide], the IC50 was more than 10 µM.
`NCC(=O)Nc1ccccc1/N=c1\cc(-c2ccc3c(c2)OCO3)oc2c(N)cccc12` [Compound 5m, (E)-2-amino-N-(2-((2-(benzo[d][1,3]dioxol-5-yl)-8-amino-4H-chromen-4-ylidene)amino)phenyl)acetamide] returned an IC50 of 6.16 ± 1.11 µM.
For the molecule `NCC(=O)Nc1ccccc1/N=c1\cc(-c2ccc3c(c2)OCCO3)oc2ccccc12` [Compound 5p, (E)-2-amino-N-(2-((2-(2,3-dihydrobenzo[b][1,4]dioxin-6-yl)-4H-chromen-4-ylidene)amino)phenyl)acetamide], the half-inhibitory concentration (IC50) stood at 1.52 ± 0.121 µM.
The molecule `C[C@H](N)C(=O)Nc1ccccc1/N=c1\cc(-c2ccc3c(c2)OCCO3)oc2c([N+](=O)[O-])cccc12` [Compound 5q, (S,E)-2-amino-N-(2-((2-(2,3-dihydrobenzo[b][1,4]dioxin-6-yl)-8-nitro-4H-chromen-4-ylidene)amino)phenyl)propanamide] returned an IC50 of more than 10 µM.
Molecule `C[C@H](N)C(=O)Nc1ccccc1/N=c1\cc(-c2ccc3c(c2)OCCO3)oc2c(N)cccc12` [Compound 5r, (S,E)-2-amino-N-(2-((8-amino-2-(2,3-dihydrobenzo[b][1,4]dioxin-6-yl)-4H-chromen-4-ylidene)amino)phenyl)propanamide] had an IC50 of more than 10 µM.
In the case of `COc1ccc2/c(=N/c3ccccc3NC(=O)[C@H](C)N)cc(-c3ccc4c(c3)OCCO4)oc2c1` [Compound 5s, (S,E)-2-amino-N-(2-((2-(2,3-dihydrobenzo[b][1,4]dioxin-6-yl)-7-methoxy-4H-chromen-4-ylidene)amino)phenyl)propanamide], the half-maximal inhibitory concentration (IC50) was more than 10 µM.
On the same count and under the same terms, the value for `COc1ccc2/c(=N/c3ccccc3NC(=O)CN)cc(-c3ccc4c(c3)OCCO4)oc2c1` [Compound 5t, (E)-2-amino-N-(2-((2-(2,3-dihydrobenzo[b][1,4]dioxin-6-yl)-7-methoxy-4H-chromen-4-ylidene)amino)phenyl)acetamide] was more than 10 µM; that for `C[C@H](N)C(=O)Nc1ccccc1/N=c1\cc(-c2ccc3c(c2)OCCO3)oc2cc(F)ccc12` [Compound 5x, (S,E)-2-amino-N-(2-((2-(2,3-dihydrobenzo[b][1,4]dioxin-6-yl)-7-fluoro-4H-chromen-4-ylidene)amino)phenyl)propanamide] was more than 10 µM; that for `NCC(=O)Nc1ccccc1/N=c1\cc(-c2ccc3c(c2)OCCO3)oc2cc(F)ccc12` [Compound 5y, (E)-2-amino-N-(2-((2-(2,3-dihydrobenzo[b][1,4]dioxin-6-yl)-7-fluoro-4H-chromen-4-ylidene)amino)phenyl)acetamide] was more than 10 µM.
Turning to `COCCC(=O)Nc1ccccc1/N=c1\cc(-c2ccc3nc(N)oc3c2)oc2ccccc12` [Compound 12b, (E)-N-(2-((2-(2-aminobenzo[d]oxazol-6-yl)-4H-chromen-4-ylidene)amino)phenyl)-3-methoxypropanamide], half-maximal inhibition (IC50) was put at 3.37 ± 0.334 µM.
`CS(=O)(=O)NCCC(=O)Nc1ccccc1/N=c1\cc(-c2ccc3nc(N)oc3c2)oc2ccccc12` [Compound 12d, (E)-N-(2-((2-(2-aminobenzo[d]oxazol-6-yl)-4H-chromen-4-ylidene)amino)phenyl)-3-(methylsulfonamido)propanamide]: half-maximal inhibition (IC50) required 3.39 ± 0.164 µM.
Consider `CN(C)CCC(=O)Nc1ccccc1/N=c1\cc(-c2ccc3nc(N)oc3c2)oc2ccccc12` [Compound 12e, (E)-N-(2-((2-(2-aminobenzo[d]oxazol-6-yl)-4H-chromen-4-ylidene)amino)phenyl)-3-(dimethylamino)propanamide], for which the midpoint of inhibition, the IC50, lay at 2.61 ± 0.201 µM.
The molecule `CCN(CC)CCC(=O)Nc1ccccc1/N=c1\cc(-c2ccc3nc(N)oc3c2)oc2ccccc12` [Compound 12f, (E)-N-(2-((2-(2-aminobenzo[d]oxazol-6-yl)-4H-chromen-4-ylidene)amino)phenyl)-3-(diethylamino)propanamide] gave an IC50 of more than 10 µM.
`Nc1nc2ccc(-c3c/c(=N\c4ccccc4NC(=O)CCN4CCCC4)c4ccccc4o3)cc2o1` [Compound 12g, (E)-N-(2-((2-(2-aminobenzo[d]oxazol-6-yl)-4H-chromen-4-ylidene)amino)phenyl)-3-(pyrrolidin-1-yl)propanamide]: the IC50 is more than 10 µM.
In turn, `Nc1nc2ccc(-c3c/c(=N\c4ccccc4NC(=O)CCN4CCOCC4)c4ccccc4o3)cc2o1` [Compound 12h, (E)-N-(2-((2-(2-aminobenzo[d]oxazol-6-yl)-4H-chromen-4-ylidene)amino)phenyl)-3-morpholinopropanamide] yielded an IC50 of more than 10 µM.
`N#Cc1ccc2oc(-c3ccc4nc(N)oc4c3)c/c(=N\c3ccccc3NC(=O)CCN)c2c1` [Compound 12l, (E)-3-amino-N-(2-((2-(2-aminobenzo[d]oxazol-6-yl)-6-cyano-4H-chromen-4-ylidene)amino)phenyl)propanamide]: the midpoint of inhibition, the IC50, lay at 1.24 ± 0.0861 µM.
The molecule `NCCC(=O)Nc1ccccc1/N=c1\cc(-c2ccc3nc(N)oc3c2)oc2cc(Br)ccc12` [Compound 12o, (E)-3-amino-N-(2-((2-(2-aminobenzo[d]oxazol-6-yl)-7-bromo-4H-chromen-4-ylidene)amino)phenyl)propanamide] had an IC50 of 9.34 ± 0.748 µM.
`CCNc1nc2ccc(-c3c/c(=N\c4ccccc4NC(=O)CCN)c4ccccc4o3)cc2o1` [Compound 15, (E)-3-amino-N-(2-((2-(2-(ethylamino)benzo[d]oxazol-6-yl)-4H-chromen-4-ylidene)amino)phenyl)propanamide]: half-maximal inhibition (IC50) was put at 2.66 ± 0.38 µM.
For the molecule `NCCC(=O)Nc1ccccc1/N=c1\cc(-c2ccc3oc(N)nc3c2)oc2ccccc12` [Compound 21, (E)-3-amino-N-(2-((2-(2-aminobenzo[d]oxazol-5-yl)-4H-chromen-4-ylidene)amino)phenyl)propanamide], the IC50 is 0.696 ± 0.0582 µM.

The experiment is the same for the next values; noted with them: vs 12a.
For `NCCC(=O)Nc1ccccc1/N=c1\cc(-c2ccc3oc(N)nc3c2)oc2ccccc12` [Compound 21, (E)-3-amino-N-(2-((2-(2-aminobenzo[d]oxazol-5-yl)-4H-chromen-4-ylidene)amino)phenyl)propanamide], the “fold decrease in kinase inhibitory activity (mTOR)” value is listed as 15.4 fold.

Source of the values: PMC13366236 (Acta Pharmaceutica Sinica. B, 2025).
